What all share (assay type): in vivo
In assay [1] the test system is Glomerella lagenarium; Anamorph: Colletotrichum lagenarium. The experiment in a line: Cucumber Anthracnose (COLLLA) disease control. As to conditions: 1 Day Protectant; for pest or weed control at 100 ppm: Colletotrichum orbiculare, topical, 24 h, read-out: Disease Control COLLLA 1 DP. Here is the method:
Technical grades of materials were dissolved in acetone, which were then mixed with nine volumes of water containing 110 ppm Triton X-100. The fungicide solutions were applied onto wheat seedlings using an automated booth sprayer to run-off. All sprayed plants were allowed to air dry prior to further handling. All fungicides were evaluated using the aforementioned method for their activity vs. all target diseases. Wheat leaf blotch and brown rust activity were also evaluated using track spray applications, in which case the fungicides were formulated as EC formulations, containing 0.1% Trycol 5941 in the spray solutions. Wheat plants (variety Yuma) were grown from seed in a greenhouse in 50% mineral soil/50% soil-less Metro mix until the first leaf was fully emerged, with 7-10 seedlings per pot. These plants were inoculated with an aqueous spore suspension of Septoria tritici either prior to or after fungicide treatments. After inoculation the plants were kept in 100% relative humidity (one day in a dark dew chamber followed by two to three days in a lighted dew chamber at 20° C.) to permit spores to germinate and infect the leaf. The plants were then transferred to a greenhouse set at 20° C. for disease to develop. When disease symptoms were fully expressed on the 1st leaves of untreated plants, infection levels were assessed on a scale of 0 to 100 percent disease severity. Percent disease control was calculated using the ratio of disease severity on treated plants relative to untreated plants. Cucumber seedlings (variety Bush Pickle) were propagated in soil-less Metro mix, with each pot having one plant, and used in the test when 12 to 14 days old. Test plants were inoculated with an aqueous spore suspension of Colletotrichum lagenarium 24 hr after fungicide treatments. After inoculation the plants were kept in a dew room at 22° C. with 100% relative humidity for 48 hr to permit spores to germinate and infect the leaf. The plants were then transferred to a growth room set at 22° C. for disease to develop. Fungicide formulation, application and disease assessment on the sprayed leaves followed the procedures as described in the Example A.

For the next assay, the system named is Uncinula necator. The assay can be described thus: Grape Powdery Mildew (UNCINE) disease control. As to conditions: 1 Day Protectant; for pest or weed control at 100 ppm: Erysiphe necator, topical, 24 h, read-out: Disease Control UNCINE 1 DP. The protocol:
Technical grades of materials were dissolved in acetone, which were then mixed with nine volumes of water containing 110 ppm Triton X-100. The fungicide solutions were applied onto wheat seedlings using an automated booth sprayer to run-off. All sprayed plants were allowed to air dry prior to further handling. All fungicides were evaluated using the aforementioned method for their activity vs. all target diseases. Wheat leaf blotch and brown rust activity were also evaluated using track spray applications, in which case the fungicides were formulated as EC formulations, containing 0.1% Trycol 5941 in the spray solutions. Wheat plants (variety Yuma) were grown from seed in a greenhouse in 50% mineral soil/50% soil-less Metro mix until the first leaf was fully emerged, with 7-10 seedlings per pot. These plants were inoculated with an aqueous spore suspension of Septoria tritici either prior to or after fungicide treatments. After inoculation the plants were kept in 100% relative humidity (one day in a dark dew chamber followed by two to three days in a lighted dew chamber at 20° C.) to permit spores to germinate and infect the leaf. The plants were then transferred to a greenhouse set at 20° C. for disease to develop. When disease symptoms were fully expressed on the 1st leaves of untreated plants, infection levels were assessed on a scale of 0 to 100 percent disease severity. Percent disease control was calculated using the ratio of disease severity on treated plants relative to untreated plants. Grape seedlings (variety Carignane) were grown in soil-less Metro mix, with one plant per pot, and used in the test when approximately one month old. Plants were inoculated 24 hr after fungicide treatment by shaking spores from infected leaves over test plants. Plants were maintained in a greenhouse set at 20° C. until disease was fully developed. Fungicide formulation, application and disease assessment on the sprayed leaves followed the procedures as described in the Example A.

A further assay concerns Alternaria solani. The experiment in a line: Tomato Early Blight (ALTESO) disease control. As to conditions: 1 Day Protectant; for pest or weed control at 100 ppm: Alternaria solani, topical, 24 h, read-out: Disease Control ALTESO 1 DP. The protocol: Technical grades of materials were dissolved in acetone, which were then mixed with nine volumes of water containing 110 ppm Triton X-100. The fungicide solutions were applied onto wheat seedlings using an automated booth sprayer to run-off. All sprayed plants were allowed to air dry prior to further handling. All fungicides were evaluated using the aforementioned method for their activity vs. all target diseases. Wheat leaf blotch and brown rust activity were also evaluated using track spray applications, in which case the fungicides were formulated as EC formulations, containing 0.1% Trycol 5941 in the spray solutions. Wheat plants (variety Yuma) were grown from seed in a greenhouse in 50% mineral soil/50% soil-less Metro mix until the first leaf was fully emerged, with 7-10 seedlings per pot. These plants were inoculated with an aqueous spore suspension of Septoria tritici either prior to or after fungicide treatments. After inoculation the plants were kept in 100% relative humidity (one day in a dark dew chamber followed by two to three days in a lighted dew chamber at 20° C.) to permit spores to germinate and infect the leaf. The plants were then transferred to a greenhouse set at 20° C. for disease to develop. When disease symptoms were fully expressed on the 1st leaves of untreated plants, infection levels were assessed on a scale of 0 to 100 percent disease severity. Percent disease control was calculated using the ratio of disease severity on treated plants relative to untreated plants. Tomato plants (variety Outdoor girl) were propagated in soil-less Metro mix, with each pot having one plant, and used when 12 to 14 days old. Test plants were inoculated with an aqueous spore suspension of Alternaria solani 24 hr after fungicide treatments. After inoculation the plants were kept in 100% relative humidity (one day in a dark dew chamber followed by two to three days in a lighted dew chamber at 20° C.) to permit spores to germinate and infect the leaf. The plants were then transferred to a growth room at 22° C. for disease to develop. Fungicide formulation, application and disease assessment on the sprayed leaves followed the procedures as described in the Example A.

Another assay concerns Erysiphe cichoracearum. The experiment in a line: Powdery Mildew of Cucumber (ERYSCI) disease control. The settings on record: 1 Day Protectant; for pest or weed control at 100 ppm: Golovinomyces cichoracearum, topical, 24 h, read-out: Disease Control ERYSCI 1 DP. Here is the method: Technical grades of materials were dissolved in acetone, which were then mixed with nine volumes of water containing 110 ppm Triton X-100. The fungicide solutions were applied onto wheat seedlings using an automated booth sprayer to run-off. All sprayed plants were allowed to air dry prior to further handling. All fungicides were evaluated using the aforementioned method for their activity vs. all target diseases. Wheat leaf blotch and brown rust activity were also evaluated using track spray applications, in which case the fungicides were formulated as EC formulations, containing 0.1% Trycol 5941 in the spray solutions. Wheat plants (variety Yuma) were grown from seed in a greenhouse in 50% mineral soil/50% soil-less Metro mix until the first leaf was fully emerged, with 7-10 seedlings per pot. These plants were inoculated with an aqueous spore suspension of Septoria tritici either prior to or after fungicide treatments. After inoculation the plants were kept in 100% relative humidity (one day in a dark dew chamber followed by two to three days in a lighted dew chamber at 20° C.) to permit spores to germinate and infect the leaf. The plants were then transferred to a greenhouse set at 20° C. for disease to develop. When disease symptoms were fully expressed on the 1st leaves of untreated plants, infection levels were assessed on a scale of 0 to 100 percent disease severity. Percent disease control was calculated using the ratio of disease severity on treated plants relative to untreated plants. Cucumber seedlings (variety Bush Pickle) were grown in soil-less Metro mix, with one plant per pot, and used in the test when 12 to 14 days old. Plants were inoculated with a spore suspension 24 hr following fungicide treatments. After inoculation the plants remained in the greenhouse set at 20° C. until disease was fully expressed. Fungicide formulation, application and disease assessment on the sprayed leaves followed the procedures as described in the Example A.

In the case of `COc1ccnc(C(=O)N[C@H]2CCC[C@H](Cc3ccc(F)cc3)[C@@H](OCC3CC3)[C@H](C)OC2=O)c1OC(C)=O` [Compound F67], the pest or weed control at 100 ppm fell in the range of 80 to 100% in assay [1], 0 to 80% in the assay on Uncinula necator, 80 to 100% in the assay on Alternaria solani and 0 to 80% with Erysiphe cichoracearum.

Regarding `COc1ccnc(C(=O)N[C@H]2CCC[C@H](Cc3ccccc3)[C@@H](OCC(C)C)[C@H](C)OC2=O)c1OC(C)=O` [Compound F70], the pest or weed control at 100 ppm in assay [1] was 80 to 100%; in the assay on Uncinula necator it was 80 to 100%; with Alternaria solani it was 0 to 80%; with Erysiphe cichoracearum, 80 to 100%.

Take `COCC[C@H]1CCC[C@H](NC(=O)c2nccc(OC)c2OC(C)=O)C(=O)O[C@@H](C)[C@@H]1Oc1ccccc1` [Compound F78]: the pest or weed control at 100 ppm in assay [1] lay in the range of 80 to 100%; with Uncinula necator, 0 to 80%; with Alternaria solani, 0 to 80%; in the assay on Erysiphe cichoracearum, 0 to 80%.

As for `CC[C@H]1CCC[C@H](NC(=O)c2nccc(OC)c2OC(C)=O)C(=O)O[C@@H](C)[C@@H]1Oc1ccccc1` [Compound F81], the pest or weed control at 100 ppm lay within 80 to 100% in assay [1], 80 to 100% in the assay on Uncinula necator, 0 to 80% in the assay with Alternaria solani and 0 to 80% in the assay with Erysiphe cichoracearum.

Regarding `CCO[C@@H]1[C@@H](Cc2ccccc2)CCC[C@H](NC(=O)c2nccc(OC)c2OC(C)=O)C(=O)O[C@H]1C` [Compound F87], the pest or weed control at 100 ppm was 80 to 100% in assay [1], 80 to 100% in the assay with Uncinula necator, 80 to 100% in the assay on Alternaria solani and 0 to 80% with Erysiphe cichoracearum.

On to `CCCO[C@@H]1[C@@H](Cc2ccccc2)CCC[C@H](NC(=O)c2nccc(OC)c2OC(C)=O)C(=O)O[C@H]1C` [Compound F88], for which the pest or weed control at 100 ppm (in assay [1]; in the assay on Uncinula necator; with Alternaria solani; with Erysiphe cichoracearum) was 80 to 100% in each case.

`CCCO[C@@H]1[C@@H](CCC(C)C)CCC[C@H](NC(=O)c2nccc(OC)c2OCOC(C)=O)C(=O)O[C@H]1C` [Compound F92]: the pest or weed control at 100 ppm (in assay [1]; in the assay with Uncinula necator; with Alternaria solani; in the assay on Erysiphe cichoracearum) was 80 to 100% each time.

As to `COc1ccnc(C(=O)N[C@H]2CCC[C@H](Cc3ccc(F)cc3)[C@@H](OCC3CC3)[C@H](C)OC2=O)c1OCOC(C)=O` [Compound F96], the pest or weed control at 100 ppm (in assay [1]; with Uncinula necator; in the assay with Alternaria solani; in the assay on Erysiphe cichoracearum) was 80 to 100% each time.

Regarding `COc1ccnc(C(=O)N[C@H]2CCC[C@H](Cc3ccc(F)cc3)[C@@H](OCC3CC3)[C@H](C)OC2=O)c1OCOC(C)=O` [Compound F98], in assay [1] (100 ppm), the “Disease Control COLLLA 1 DP” value is on record as “A (80-100)”. In the assay with Uncinula necator (100 ppm), the “Disease Control UNCINE 1 DP” value is reported as “A (80-100)”. The “Disease Control ALTESO 1 DP” value with Alternaria solani (100 ppm) was “A (80-100)”. Also, the “Disease Control ERYSCI 1 DP” value in the assay with Erysiphe cichoracearum (100 ppm) is “A (80-100)”.

For `CCCO[C@@H]1[C@@H](Cc2ccc(F)cc2)CCC[C@H](NC(=O)c2nccc(OC)c2OCOC(C)=O)C(=O)O[C@H]1C` [Compound F101], the pest or weed control at 100 ppm (in assay [1]; with Uncinula necator; with Alternaria solani; with Erysiphe cichoracearum) was 80 to 100% each time.

Take `COc1ccnc(C(=O)N[C@H]2CCC[C@H](Cc3ccccc3)[C@@H](OCC(C)C)[C@H](C)OC2=O)c1OCOC(C)=O` [Compound F106]: the pest or weed control at 100 ppm (in assay [1]; in the assay with Uncinula necator; in the assay with Alternaria solani; with Erysiphe cichoracearum) was 80 to 100% each time.

As to `COc1ccnc(C(=O)N[C@H]2CCC[C@H](Cc3ccccc3)[C@@H](OCC3CC3)[C@H](C)OC2=O)c1OCOC(C)=O` [Compound F107], the pest or weed control at 100 ppm in assay [1] is 80 to 100%; with Uncinula necator it was 0 to 80%; with Alternaria solani, 80 to 100%; in the assay on Erysiphe cichoracearum, 80 to 100%.

Turning to `CCCO[C@@H]1[C@@H](Cc2ccccc2)CCC[C@H](NC(=O)c2nccc(OC)c2OCOC(C)=O)C(=O)O[C@H]1C` [Compound F109], the pest or weed control at 100 ppm (in assay [1]; in the assay on Uncinula necator; with Alternaria solani; in the assay on Erysiphe cichoracearum) was 80 to 100% each time.

With `COc1ccnc(C(=O)N[C@H]2CCC[C@H](CC3CCCC3)[C@@H](OCC3CC3)[C@H](C)OC2=O)c1OCOC(C)=O` [Compound F117], the pest or weed control at 100 ppm (in assay [1]; in the assay with Uncinula necator; in the assay with Alternaria solani; in the assay on Erysiphe cichoracearum) was 80 to 100% each time.

The values above are taken from US9265253B2, “Use of macrocyclic picolinamides as fungicides” (DOW AGROSCIENCES LLC, priority 2013, dated 2016).
